{
  "source": "patent US12404232B2",
  "about": "“Compounds and compositions for intracellular delivery of therapeutic agents” (ModernaTX, Inc., priority 2015, dated 2025)",
  "key": {"[1]": {"tested_on": "rat", "assay": "Clinical chemistry and hematology in rat after intravenous administration", "type": "in vivo", "design": "unit not given here", "details": "2 mpk, 48 h post dose", "procedure": "Sample formulations of nanoparticle compositions including different lipids were administered intravenously to rat at a dose of 2 mpk. The expression of various clinical markers was evaluated at 48 h post dose and compared to that induced by administration of MC3 formulations or phosphate buffered saline (PBS).\n(§1) Table 19 summarizes the hEPO expression, IP-10 induction, liver and spleen levels, and alanine aminotransferase (ALT) and aspartate aminotransferase (AST) measured upon intravenous administration of formulations including Compounds 48, 49, and 50 to rat at 0.2 and 2 mpk and hEPO mRNA. hEPO concentrations were measured 6 hours after administration, while cytokine induction and liver and spleen levels were measured 48 hours after administration. hEPO and IP-10 concentrations are presented in pg/ml, while liver levels are provided in ng/g. ALT and AST levels are presented in international units."}, "[2]": {"tested_on": "rats", "assay": "Residual lipid levels in liver and spleen of rats (UPLC-MS quantification)", "type": "in vivo, rat", "details": "for % Lipid Remaining in liver, 48 h* 2 mpk: assuming 300 g rat and 15 g liver; for Lipid level in liver / Lipid level in spleen: rat, i.v., 0.2 mpk", "procedure": "At 48 h liver tissue was harvested for lipid quantification. To pre-weighed tissues, Milli-Q water was added (900 μL water per 100 mg tissue). Tissues were homogenized using an Omni probe homogenizer until uniform. 50 μL of samples and matrix calibration standards were aliquoted into a 96-well plate. 50 μL of blank matrix for matrix blanks and control blanks were aliquoted. 400 μL IS spiking solution were manually added to all samples except matrix blanks. 400 μL of 50:50 ACN:IPA were manually added to matrix blanks. The plate was covered and the samples vortexed and centrifuged for 5 minutes at >3000 rpm. 200 μL of the samples were transferred into a clean 96-well plate for analysis. Samples were analyzed on a Waters Acquity UPLC using a Higgins Analytical Clipeus C8 column ([…], 30×2.1 mm) and a gradient of either 70-95% or 60-95% (Mobile Phase A: 5 mM ammonium formate in 50:50:1 H2O:MeOH:formic acid; Mobile Phase B: 5 mM ammonium formate in 100:1 MeOH:formic acid) over 1.3 min at 1.2 mL/min (column temperature 55° C.). Detection was based on electrospray ionization (ESI) in positive mode using a Sciex API5500 Mass Spectrometer.\nThe expression of hEPO in rats intravenously administered a nanoparticle composition at a dose of 0.2 mpk or 2.0 mpk was measured at 6 hours. Table 16 summarize the ratio of hEPO expression levels using various nanoparticle compositions as compared to the hEPO expression level using MC3 formulation and the lipid levels in the liver measured 48 hours after administration, as described above. Tables 17 and 18 summarize the lipid levels in the liver and spleen measured 48 hours after administration of Compounds 28, 33, 53, and 54. Liver and spleen levels represent the average values calculated for 3 rats in each group. As is shown in Tables 17 and 18, less than 10% of Compounds 28, 33, 53, and 54 remained in the liver after 48 hours, while greater than 60% of MC3 remained.\nas §1\nThe expression of hEPO induced by intravenous administration to rats of nanoparticle compositions at various doses was measured at 2, 4, 6, 8, 24, and 48 hour time points. FIGS. 3-6 respectively summarize the hEPO expression measured upon intravenous administration of formulations including Compounds 26, 18, 25, and MC3 to rat at various doses. The lipid levels of Compound 26 in the liver after 48 hours were about 19%.\nThe expression of hEPO and lipid levels in the liver and spleen in rats intravenously administered a nanoparticle composition at a dose of 0.2 mpk was measured at various timepoints. Compounds 18 and 25 were selected for comparison with MC3. Lipids were formulated according to the standard MC3 formulation described above. Rats were administered intravenously a single 0.2 mpk dose and expression monitored at 0.25, 0.5, 1, 2, 4, 8, 24, and 48 hours after administration."}},
  "data": [
    {"smiles": "CCCCCCCCCCCOC(=O)CCCCCN(CCO)CCCCCCCC(=O)OC(CCCCCCCC)CCCCCCCC", "note": "[Compound 25, Heptadecan-9-yl 8-((2-hydroxyethyl)(6-oxo-6-(undecyloxy)hexyl)amino)octanoate]", "values": [
      {"measurement": "Alanine aminotransferase (Concentration)", "setting": "[1]", "result": 52},
      {"measurement": "Aspartate aminotransferase (Concentration)", "setting": "[1]", "result": 124.5},
      {"measurement": "Lymphocytes (Concentration)", "setting": "[1]", "result": 15924},
      {"measurement": "Monocytes (Concentration)", "setting": "[1]", "result": 2122},
      {"measurement": "Neutrophils (Concentration)", "setting": "[1]", "result": 1998},
      {"measurement": "% Lipid Remaining in liver, 48 h* 2 mpk", "setting": "[2]; rats, 48 h", "result": 1.32, "unit": "%"}
    ]},
    {"smiles": "CCCCCC=CCC=CCCCCCCCCC(CCCCCCCCC=CCC=CCCCCC)OC(=O)CCCN(C)C", "note": "(stereo not drawn) [MC3, heptatriaconta-6,9,28,31-tetraen-19-yl 4-(dimethylamino)butanoate, reference compound]", "values": [
      {"measurement": "Alanine aminotransferase (Concentration)", "setting": "[1]", "result": 339},
      {"measurement": "Aspartate aminotransferase (Concentration)", "setting": "[1]", "result": 325},
      {"measurement": "Lymphocytes (Concentration)", "setting": "[1]", "result": 19976},
      {"measurement": "Monocytes (Concentration)", "setting": "[1]", "result": 1429},
      {"measurement": "Neutrophils (Concentration)", "setting": "[1]", "result": 4962.5},
      {"measurement": "% Lipid Remaining in liver, 48 h* 2 mpk", "setting": "[2]; rats, 48 h", "result": 87, "unit": "%"},
      {"measurement": "remained in the liver after 48 hours", "setting": "[2]; rats, intravenous, 48 hours", "result": "greater than 60%"}
    ]},
    {"smiles": "CCCCCCCCCOC(=O)CCCCCCCN(CCO)CCCCCCCC(=O)OC(CCCCCCCC)CCCCCCCC", "note": "[Compound 18, Heptadecan-9-yl 8-((2-hydroxyethyl)(8-(nonyloxy)-8-oxooctyl)amino)octanoate]", "values": [
      {"measurement": "Lipid level in liver", "setting": "[2]; 0.25 h", "result": 5374, "unit": "ng/g"},
      {"measurement": "Lipid level in spleen", "setting": "[2]; 0.25 h", "result": 1230, "unit": "ng/g"},
      {"measurement": "Lipid level in liver", "setting": "[2]; 0.5 h", "result": 6023, "unit": "ng/g"},
      {"measurement": "Lipid level in spleen", "setting": "[2]; 0.5 h", "result": 2017, "unit": "ng/g"},
      {"measurement": "Lipid level in liver", "setting": "[2]; 1 h", "result": 6053, "unit": "ng/g"},
      {"measurement": "Lipid level in spleen", "setting": "[2]; 1 h", "result": 3213, "unit": "ng/g"},
      {"measurement": "Lipid level in liver", "setting": "[2]; 2 h", "result": 2037, "unit": "ng/g"},
      {"measurement": "Lipid level in spleen", "setting": "[2]; 2 h", "result": 3070, "unit": "ng/g"},
      {"measurement": "Lipid level in liver", "setting": "[2]; 4 h", "result": 839, "unit": "ng/g"},
      {"measurement": "Lipid level in spleen", "setting": "[2]; 4 h", "result": 3770, "unit": "ng/g"},
      {"measurement": "Lipid level in liver", "setting": "[2]; 8 h", "result": 296, "unit": "ng/g"},
      {"measurement": "Lipid level in spleen", "setting": "[2]; 8 h", "result": 1345, "unit": "ng/g"},
      {"measurement": "Lipid level in liver", "setting": "[2]; 24 h", "result": 5, "unit": "ng/g"},
      {"measurement": "Lipid level in spleen", "setting": "[2]; 24 h", "result": 271, "unit": "ng/g"},
      {"measurement": "Lipid level in liver", "setting": "[2]; 48 h", "result": 5374, "unit": "ng/g"},
      {"measurement": "Lipid level in spleen", "setting": "[2]; 48 h", "result": 92, "unit": "ng/g"},
      {"measurement": "% Lipid Remaining in liver, 48 h* 2 mpk", "setting": "[2]; rats, 48 h", "result": 0.018, "unit": "%"}
    ]}
  ]
}
